We go through six compounds from patent US4377576A, “5-(Heterocyclic amino-propionyl)-5,10-dihydro-11H-dibenzo[b,e][1,4]diazepin-11-ones” (Karl Thomae Gesellschaft mit beschrankter Haftung, priority 1980, dated 1983).

In data set [1] the test system is gastric secretion (free and total hydrochloric acid in the gastric fluid). In words: Inhibition of gastric fluid secretion (liberation of acid), pylorus ligature, method of Shay et al. The format is in vivo, male Crl:COBS (WI) BR Albino rats. Conditions: Rat, i.d., 4 hours after pylorus ligature. Here is the method:
The inhibiting activity on the gastric secretion was tested in male Crl:COBS (WI) BR Albino rats having a weight of 100 to 125 gm, according to the method of Shay et al., Gastroenterology 26, 906 (1954). The rats were fasted for 24 hours and then anesthetized with ether. The […] was opened, and the pylorus was tied up. […] The control animals received the same volume of the vehicle (0.2% methyl cellulose solution). After 4 hours the animals were killed by dislocating the neck vertebra, the stomachs were removed, opened along the great curvature and the gastric fluid collected. The free and total hydrochloric acid in the gastric fluid was measured by titration with N/10 sodium hydroxide solution. The results were determined in percent from the data received from the treated and untreated animals. The ED50 values were calculated by linear regression analysis of the probits according to the method described by D. J. Finney, Probit Analysis, Cambridge University Press, 1971.

The test system of a further data set is stomach ulcers. As to the kind of experiment: Inhibiting effect on the formation of stomach ulcers (acetyl salicylic acid and close-meshed wire cage), method of P. A. Brown. The format is in vivo, female Crl:COBS-CD(SD)Br rats. Conditions: po, 0.5 h; Rat, p.o., acetyl salicylic acid 30 min after compound, then wire cage; read-out: Ulcer Inhibition ED50. Here is the method:
The inhibiting effect on the formation of stomach ulcers was tested in female Crl:COBS-CD(SD)Br rats having a weight of 130 to 160 gm, according to the method of P. A. Brown, European J. Pharmacol. 51, 275 (1978). The animals were fasted for 24 hours, and the compounds were suspended in a 0.2% methyl cellulose solution and administered to the animals using an esophageal tube. After 30 minutes the animals received acetyl salicylic acid perorally at a dose of 8 mg/kg, and after another 30 minutes the animals were placed at room temperature into a close-meshed wire cage. After one hour the animals were killed by dislocating the neck vertebra, the stomach was removed, opened by cutting along the great curvature, the inner side was outwardly spread out on a test tube, and the presence of stomach ulcers was recorded. The activity of the compounds was determined by counting the numbers of stomachs which were free of ulcers. The ED50 was calculated according to the method described by J. T. Litchfield and F. Wilcoxon, J. Pharmac. Exp. Therap. 96, 99 (1949).

Another data set in a line: Acute toxicity. Conditions: in vivo, po; Mouse. Here is the method: The acute toxicity was determined in male CrL-COBS-CD-I(ICR) mice of an average body weight of 22 to 24 gm which had been fasted for 24 hours. Different doses of each compound were administered to groups of 5 to 10 animals by means of an esophageal tube, and the LD50 -values were calculated by the method of D. J. Finney (supra).

A short description of data set [2]: Mydriasis: effect on the size of the pupil. Also on record: species or system male Crl:COBS-CD(SD)BR rats. Conditions: in vivo, po; Rat, percent of maximum pupil diameter obtained by atropine, 30-120 min. The method, then:
The effect on the size of the pupil was tested in male Crl:COBS-CD(SD)BR rats having a body weight of 100 to 130 gm by using a […]-binocular microscope with a graduated lens and a 10-fold magnification. The compounds were suspended in a 0.2% methyl cellulose solution and administered using an esophageal tube; groups of 5 animals were used per dose. The control animals received the same volume (1 ml/100 gm of body weight) of the vehicle. The diameter of the pupil was measured before administering the test compound, and 30, 60, 90 and 120 minutes after the treatment. The activity was expressed in percent with regard to the maximum diameter obtained by means of atropine. The ED50 was determined by linear regression analysis of the probits according to the method described by D. J. Finney (supra).

Where a name gives a salt, the structure may show the parent alone.

With `CN1C(=O)c2ccccc2N(C(=O)CCN2CCCC2)c2ccccc21` [B, 5,10-dihydro-10-methyl-5-(3-pyrrolidino-propionyl)-11H-dibenzo[b,e,][1,4]diazepin-11-one hydrochloride], the ED50 in data set [1] came to 0.73 mg/kg; in the data set with stomach ulcers, 2.05 mg/kg. This compound also registered a median lethal dose (LD50) in the data set “Acute toxicity” of 574 mg/kg.

In the case of `Cl.O=C1Nc2ccccc2N(C(=O)CCN2CCCCC2)c2ccccc21` [C, 5,10-dihydro-5-(3-piperidino-propionyl)-11H-dibenzo[b,e][1,4]diazepin-11-one hydrochloride], the 50% effective dose (ED50) came to 1.6 mg/kg in data set [1], 3.84 mg/kg in data set [2] and 2.1 mg/kg with stomach ulcers. Further, the LD50 in “Acute toxicity” worked out at 813 mg/kg.

In the case of `CN1C(=O)c2ccccc2N(C(=O)CN2CCCC2)c2ccccc21` [E, 5,10-dihydro-10-methyl-5-(pyrrolidino-acetyl)-11H-dibenzo[b,e,][1,4]diazepin-11-one hydrochloride], the ED50 was determined as 18.1 mg/kg in data set [1], 9.84 mg/kg in data set [2] and 8.4 mg/kg in the data set on stomach ulcers. The LD50 in “Acute toxicity” is 816 mg/kg.

With `O=C1Nc2ccccc2N(C(=O)CN2CCCC2)c2ccccc21` [D, 5,10-dihydro-5-(pyrrolidino-acetyl)-11H-dibenzo[b,e][1,4]diazepin-11-one], the ED50 stood at 8.15 mg/kg in data set [1], 9.91 mg/kg in data set [2] and 10.2 mg/kg with stomach ulcers. In addition, in “Acute toxicity”, the LD50 amounted to 860 mg/kg.

Consider `Cl.O=C1Nc2ccccc2N(C(=O)CCN2CCCC2)c2ccccc21` [A, 5,10-dihydro-5-(3-pyrrolidino-propionyl)-11H-dibenzo[b,e][1,4]diazepin-11-one hydrochloride], for which the values for the ED50 (in data set [1]; in data set [2]; with stomach ulcers) were 0.2 mg/kg, 3.61 mg/kg and 1.27 mg/kg, respectively. The same compound came in with an LD50 in “Acute toxicity” of 609 mg/kg.

On to `O=C1Nc2ccccc2N(C(=O)CN2CCCCC2)c2ccccc21` [F, 5,10-dihydro-5-(piperidino-acetyl)-11H-dibenzo[b,e,][1,4]diazepin-11-one], for which the ED50 in data set [1] stood at 6.17 mg/kg; in data set [2], 5.82 mg/kg; with stomach ulcers it was 10.4 mg/kg. The same compound displayed a median lethal dose (LD50) in “Acute toxicity” of 600 mg/kg.
